For the first assay, the system named is human platelets (aggregation induced by PAF). Kind of assay: inhibition of PAF-induced blood platelet aggregation in vitro. The assay is classed as cell-based. As to conditions: Homo sapiens, read-out: IC50 (concentration for 50% inhibition of aggregation). The method, then:
To determine the PAF-antagonistic action of substances, use was made of the aggregation of human platelets induced in vitro by PAF. To obtain platelet-rich plasma (PRP), blood is taken from an uncompressed vein using a plastic syringe containing 3.8% strength sodium citrate solution. The ratio between sodium citrate solution and blood is 1:9. After careful mixing, the citrated blood is centrifuged at 150×g (1200 rpm) for 20 minutes. The platelet aggregation is measured by the method worked out by Born and Cross (G. V. R. Born and M. J. Cross, J. Physiol. 168, 178 (1963)), with PAF being added to the continuously stirred PRP to initiate the aggregation. The test substance is added in a volume of 10 ul in each case 2-3 minutes before initiation of the aggregation. The solvents used are either distilled water, ethanol and/or dimethyl sulphoxide. Blanks contain corresponding volumes of these solvents. After the initial absorption has been recorded (2-3 minutes), aggregation is induced with PAF (5×10^-8 M). To assess the effects of substances, use is made of the maximum of the first aggregation wave. The maximum absorption rate (=maximum aggregation×100%) induced by PAF is, in each case, simultaneously checked in a parallel mixture (=blank in one channel of the two-channel aggregometer) for each test mixture (second channel) and used as the 100% value. The aggregation obtained under the influence of the test substance is […].
As for `Cc1nnc2n1-c1ccc(Cl)cc1C(c1ccccc1Cl)=NC2` [Triazolam, triazolam, reference compound], the IC50 stood at 9000 nM.

In the case of `COC(=O)CCNC(=O)c1ccc2c(c1)C(c1ccccc1Cl)=NCc1ncc(C)n1-2` [compound 2], the IC50 worked out at 900 nM.

With `Cc1nnc2n1-c1ccc(C(=O)NCC(=O)N3CCOCC3)cc1C(c1ccccc1Cl)=NC2` [compound 4], the IC50 is 700 nM.

Regarding `COC(=O)C[C@H](NC(=O)c1ccc2c(c1)C(c1ccccc1Cl)=NCc1nnc(C)n1-2)C(=O)OC` [compound 5], the IC50 came to 1200 nM.

`Cc1nnc2n1-c1ccc(C(=O)NC3CCSC3=O)cc1C(c1ccccc1Cl)=NC2` (stereo not drawn) [compound 11]: the IC50 worked out at 3500 nM.

For the compound `Cc1nnc2n1-c1ccc(CC(=O)NCC(=O)N3CCOCC3)cc1C(c1ccccc1Cl)=NC2` [compound 12], the IC50 is 1100 nM.

Turning to `COC(=O)[C@@H](CCSC)NC(=O)c1ccc2c(c1)C(c1ccccc1Cl)=NCc1nnc(C)n1-2` [compound 15], the IC50 was 900 nM.

`CCN(CC)C(=O)[C@H](CC(C)C)NC(=O)c1ccc2c(c1)C(c1ccccc1Cl)=NCc1nnc(C)n1-2` [compound 16]: the IC50 amounted to 400 nM.

`Cc1nnc2n1-c1ccc(C(=O)N3CCC[C@H]3C(=O)N3CCOCC3)cc1C(c1ccccc1Cl)=NC2` [compound 18]: the IC50 amounted to 8100 nM.

`Cc1nnc2n1-c1ccc(C(=O)N[C@H](C(=O)NC(C)C)C(C)C)cc1C(c1ccccc1Cl)=NC2` [compound 27]: the IC50 was 700 nM.

`COc1nnc2n1-c1ccc(C(=O)NCC(=O)N3CCOCC3)cc1C(c1ccccc1Cl)=NC2` [compound 33]: the IC50 amounted to 2500 nM.

In the case of `C[C@H](NC(=O)c1ccc2c(c1)C(c1ccccc1Cl)=NCc1nnc(C3CC3)n1-2)C(=O)N1CCCC1` [compound 35], the IC50 stood at 900 nM.

The same assay, now with this note: read-out: IC50 (concentration for 50% inhibition of aggregation), Table A, human PRP, PAF 5×10^-8 M.
Take `Cc1nnc2n1-c1ccc(C(=O)NCC(=O)N3CCOCC3)cc1C(c1ccccc1Cl)NC2` (stereo not drawn) [compound 21]: the IC50 was 1900 nM.

With `Cc1nnc2n1-c1sc(C(=O)N(C)CC(=O)N3CCOCC3)cc1C(c1ccccc1Cl)=NC2` [compound 28], the IC50 was 1900 nM.

As for `Cc1nnc2n1-c1sc(CCC(=O)NCC(=O)N3CCOCC3)cc1C(c1ccccc1Cl)=NC2` [compound 48], the IC50 is 600 nM.

Values taken from US5116971A, “Substituted-1,4-diazepines” (Boehringer Ingelheim KG, priority 1986, dated 1992).
